Patent US7041687B2, “Indazole compounds useful as protein kinase inhibitors” (Vertex Pharmaceuticals Incorporated, priority 2002, dated 2006)
“And” between values parts separate entries of the source, which are not always exact repeats. Identical values can stand only once.

Columns and labels:
PDK-1 = target: T1, PDK-1 (Homo sapiens, UniProt O15530); experiment: PDK-1 inhibition assay (radioactive-phosphate incorporation); type: biochemical; conditions: 40 μM ATP, 65 μM PDKtide, 25 nM PDK-1, 30° C.
T1 sequence (O15530 1-556): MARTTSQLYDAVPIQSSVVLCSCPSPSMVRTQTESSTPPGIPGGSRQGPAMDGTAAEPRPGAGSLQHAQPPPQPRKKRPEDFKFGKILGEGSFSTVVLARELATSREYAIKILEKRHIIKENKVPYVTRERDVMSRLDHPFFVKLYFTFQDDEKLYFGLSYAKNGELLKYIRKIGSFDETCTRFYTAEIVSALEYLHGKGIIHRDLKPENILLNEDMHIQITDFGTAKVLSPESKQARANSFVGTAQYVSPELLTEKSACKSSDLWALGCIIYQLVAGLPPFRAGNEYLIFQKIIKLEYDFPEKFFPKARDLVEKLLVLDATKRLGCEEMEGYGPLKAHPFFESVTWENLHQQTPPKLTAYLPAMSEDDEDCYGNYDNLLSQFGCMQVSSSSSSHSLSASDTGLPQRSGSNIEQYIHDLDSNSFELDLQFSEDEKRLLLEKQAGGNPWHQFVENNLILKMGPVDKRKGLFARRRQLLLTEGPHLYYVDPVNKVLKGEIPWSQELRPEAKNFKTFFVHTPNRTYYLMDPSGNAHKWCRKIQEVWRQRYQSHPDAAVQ

AKT-3 = AKT-3 (Homo sapiens, UniProt Q9Y243); experiment: AKT-3 inhibition assay (standard coupled enzyme assay); type: biochemical; conditions: 170 μM ATP, 200 μM peptide, 45 nM AKT, 30° C.
AKT-3, sequence (Q9Y243 whole entry): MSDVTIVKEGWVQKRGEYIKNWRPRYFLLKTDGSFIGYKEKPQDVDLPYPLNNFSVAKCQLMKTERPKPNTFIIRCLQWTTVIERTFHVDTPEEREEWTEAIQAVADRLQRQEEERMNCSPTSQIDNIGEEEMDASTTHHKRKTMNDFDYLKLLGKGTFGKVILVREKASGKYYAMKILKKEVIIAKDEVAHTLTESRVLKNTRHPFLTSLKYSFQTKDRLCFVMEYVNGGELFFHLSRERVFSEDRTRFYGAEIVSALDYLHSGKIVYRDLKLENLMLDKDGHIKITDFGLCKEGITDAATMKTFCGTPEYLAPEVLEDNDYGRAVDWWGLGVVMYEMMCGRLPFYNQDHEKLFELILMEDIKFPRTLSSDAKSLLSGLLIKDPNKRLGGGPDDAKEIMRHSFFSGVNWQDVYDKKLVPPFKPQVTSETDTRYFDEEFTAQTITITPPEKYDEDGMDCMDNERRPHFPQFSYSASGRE

Ki (PDK-1) | Ki (AKT-3) [nM] | Structure (SMILES)
> 3000 nM | 1000 to 10000 | O=C(Cc1ccc(Cl)c(Cl)c1)Nc1ccc2[nH]ncc2c1 [Compound I-16]
> 3000 nM | 1000 to 10000 | CC(=O)Nc1cccc(C(CCN)C(=O)Nc2ccc3[nH]ncc3c2)c1 (stereo not drawn) [Compound I-111]
1000 to 3000 nM | < 1000 | Cc1cccc(C(CCN)C(=O)Nc2ccc3[nH]ncc3c2)c1 (stereo not drawn) [Compound I-112]
> 3000 nM | 1000 to 10000 | NCCC(C(=O)Nc1ccc2[nH]ncc2c1)c1cccc(OCc2ccccc2)c1 (stereo not drawn) [Compound I-114]
> 3000 nM | 1000 to 10000 | NCCC(SCc1ccccc1)C(=O)Nc1ccc2[nH]ncc2c1 (stereo not drawn) [Compound I-154]
1000 to 3000 nM | < 1000 | NCCC(C(=O)Nc1ccc2[nH]nc(NC(=O)c3ccc4ccccc4c3)c2c1)c1ccc(Cl)c(Cl)c1 (stereo not drawn) [Compound I-170]
< 1000 nM | < 1000 | NCCC(C(=O)Nc1ccc2[nH]nc(NC(=O)Nc3cccc(Cl)c3)c2c1)c1ccc(Cl)c(Cl)c1 (stereo not drawn) [Compound I-173]
1000 to 3000 nM | 1000 to 10000 | NCCC(C(=O)Nc1ccc2[nH]nc(NC(=O)Nc3ccccc3)c2c1)c1ccc(Cl)c(Cl)c1 (stereo not drawn) [Compound I-176]
1000 to 3000 nM | < 1000 | Cc1cccc(Nc2n[nH]c3ccc(NC(=O)C(CCN)c4ccc(Cl)c(Cl)c4)cc23)c1 (stereo not drawn) [Compound I-212]
< 1000 nM | 1000 to 10000 | NCCC(C(=O)Nc1ccc2[nH]nc(-c3cccc(Cl)c3)c2c1)c1ccccc1 (stereo not drawn) [Compound I-241]
< 1000 nM | < 1000 | NCCC(C(=O)Nc1ccc2[nH]nc(-c3cccc(Cl)c3)c2c1)c1ccc(Cl)c(Cl)c1 (stereo not drawn) [Compound I-253]
1000 to 3000 nM | < 1000 | COc1ccccc1C(CCN)C(=O)Nc1ccc2[nH]ncc2c1 (stereo not drawn) [Compound I-1005]
> 3000 nM | < 1000 | O=C(CCC(C(=O)O)c1ccccc1)Nc1ccc2[nH]ncc2c1 (stereo not drawn) [Compound I-1014]
1000 to 3000 nM | 1000 to 10000 | COc1cccc(C(CCN)C(=O)Nc2ccc3[nH]nc(C)c3c2)c1 (stereo not drawn) [Compound I-1018]
> 3000 nM | – | O=C(Nc1ccc2[nH]ncc2c1)C(CCNCc1ccccc1)c1ccccc1F (stereo not drawn) [Compound I-1025]
< 1000 nM | – | NCCC(C(=O)Nc1ccc2[nH]nc(-c3ccc(F)cc3)c2c1)c1ccccc1 (stereo not drawn) [Compound I-1027]
> 3000 nM | – | COc1cccc(C(CCN)C(=O)Nc2ccc3[nH]nc(Nc4cccc(Cl)c4)c3c2)c1 (stereo not drawn) [Compound I-1029]
> 3000 nM | – | COc1cccc(C(CCN)C(=O)Nc2ccc3[nH]nc(Nc4cccc(C(N)=O)c4)c3c2)c1 (stereo not drawn) [Compound I-1030]
< 1000 nM | – | NCCC(C(=O)Nc1ccc2[nH]ncc2c1)c1ccccc1F (stereo not drawn) [Compound I-1032]
< 1000 nM | – | Cc1n[nH]c2ccc(NC(=O)C(CCN)c3ccsc3)cc12 (stereo not drawn) [Compound I-1035]
1000 to 3000 nM | – | NCCC(C(=O)Nc1ccc2[nH]nc(C(=O)NCc3ccccc3)c2c1)c1ccccc1 (stereo not drawn) [Compound I-1036]
> 3000 nM | – | Cc1n[nH]c2ccc(NC(=O)C(CCN)c3ccco3)cc12 (stereo not drawn) [Compound I-1037]
< 1000 nM | < 1000 | NCC[C@@H](C(=O)Nc1ccc2[nH]nc(NC(=O)c3cccs3)c2c1)c1c(F)ccc(Cl)c1F [Compound I-1045]
< 1000 nM | < 1000 | NCC[C@H](C(=O)Nc1ccc2[nH]nc(NC(=O)c3cccs3)c2c1)c1c(F)ccc(Cl)c1F [Compound I-1046]
> 3000 nM | < 1000 | N#Cc1cccc(Nc2n[nH]c3ccc(NC(=O)[C@H](CCN)c4c(F)ccc(Cl)c4F)cc23)c1 [Compound I-1047]
< 1000 nM | 1000 to 10000 | N#Cc1cccc(Nc2n[nH]c3ccc(NC(=O)[C@@H](CCN)c4c(F)ccc(Cl)c4F)cc23)c1 [Compound I-1048]
> 3000 nM | 1000 to 10000 | NCCC(C(=O)Nc1ccc2[nH]nc(NC(=O)COc3ccccc3)c2c1)c1ccccc1 (stereo not drawn) [Compound I-1051]
< 1000 nM | 1000 to 10000 | NCC[C@@H](C(=O)Nc1ccc2[nH]nc(-c3ccccc3)c2c1)c1c(F)ccc(Cl)c1F [Compound I-1056]

Second part, the molecule before the results:

Structure (SMILES) | Ki (PDK-1) | Ki (AKT-3) [nM]
Cc1cccn(C(CCN)C(=O)Nc2ccc3[nH]nc(C)c3c2)c1=O (stereo not drawn) [Compound I-137] | 1000 to 3000 nM | 1000 to 10000
Cc1n[nH]c2ccc(NC(=O)C(CCN)c3cccc(CC(C)C)c3)cc12 (stereo not drawn) [Compound I-142] | > 3000 nM | 1000 to 10000
NCCC(C(=O)Nc1cc(-c2ccccc2)c2[nH]ncc2c1)c1ccc(Cl)c(Cl)c1 (stereo not drawn) [Compound I-150] | > 3000 nM | 1000 to 10000
NCCC(C(=O)Nc1ccc2[nH]nc(NC(=O)c3ccc4c(c3)OCO4)c2c1)c1ccc(Cl)c(Cl)c1 (stereo not drawn) [Compound I-171] | < 1000 nM | < 1000
NCCC(C(=O)Nc1ccc2[nH]nc(NS(=O)(=O)c3ccccc3)c2c1)c1ccc(Cl)c(Cl)c1 (stereo not drawn) [Compound I-190] | > 3000 nM | 10000 to 20000
NCCC(C(=O)Nc1ccc2[nH]nc(NS(=O)(=O)c3cccc(Cl)c3)c2c1)c1ccc(Cl)c(Cl)c1 (stereo not drawn) [Compound I-191] | > 3000 nM | 1000 to 10000
NCCC(C(=O)Nc1ccc2[nH]nc(Nc3cccc(F)c3)c2c1)c1ccc(Cl)c(Cl)c1 (stereo not drawn) [Compound I-213] | 1000 to 3000 nM | < 1000
CC(C)c1cccc(-c2n[nH]c3ccc(NC(=O)C(CCN)c4ccc(Cl)c(Cl)c4)cc23)c1 (stereo not drawn) [Compound I-222] | > 3000 nM | < 1000
CC(=O)c1ccc(-c2n[nH]c3ccc(NC(=O)C(CCN)c4ccccc4)cc23)cc1 (stereo not drawn) [Compound I-250] | < 1000 nM | 1000 to 10000
Cc1cccc(-c2n[nH]c3ccc(NC(=O)C(CCN)c4ccc(Cl)c(Cl)c4)cc23)c1 (stereo not drawn) [Compound I-251] | < 1000 nM | < 1000
NCC(C(=O)Nc1ccc2[nH]ncc2c1)c1cccc(Cl)c1F (stereo not drawn) [Compound I-257] | > 3000 nM | < 1000
NCC(C(=O)Nc1ccc2[nH]ncc2c1)c1ccc(Cl)cc1F (stereo not drawn) [Compound I-258] | > 3000 nM | < 1000
N#Cc1ccc(-c2n[nH]c3ccc(NC(=O)C(CCN)c4ccccc4)cc23)cc1 (stereo not drawn) [Compound I-259] | < 1000 nM | 1000 to 10000
COc1cccc(C(CCN)C(=O)Nc2ccc3[nH]nc(Nc4cccc(C#N)c4)c3c2)c1 (stereo not drawn) [Compound I-1031] | > 3000 nM | –
Cc1cccc(Nc2n[nH]c3ccc(NC(=O)C(CCN)c4ccccc4)cc23)c1 (stereo not drawn) [Compound I-1038] | 1000 to 3000 nM | 1000 to 10000
NCCC(C(=O)Nc1ccc2[nH]nc(C(=O)Nc3ccccc3)c2c1)c1ccccc1 (stereo not drawn) [Compound I-1040] | 1000 to 3000 nM | 10000 to 20000
NCCC(C(=O)Nc1ccc2[nH]nc(CNC(=O)c3ccccc3)c2c1)c1ccccc1 (stereo not drawn) [Compound I-1042] | > 3000 nM | –
NCC[C@@H](C(=O)Nc1ccc2[nH]nc(NC(=O)c3cccs3)c2c1)c1ccccc1 [Compound I-1049] | < 1000 nM | < 1000
NCCC(C(=O)Nc1ccc2[nH]nc(NC(=O)C3CCCCC3)c2c1)c1ccccc1 (stereo not drawn) [Compound I-1050] | > 3000 nM | 1000 to 10000
NCC[C@@H](C(=O)Nc1ccc2[nH]nc(-c3ccccc3)c2c1)c1ccccc1 [Compound I-1052] | < 1000 nM | 1000 to 10000
N#Cc1cccc(Nc2n[nH]c3ccc(NC(=O)[C@H](CCN)c4ccccc4)cc23)c1 [Compound I-1054] | 1000 to 3000 nM and > 3000 nM | < 1000
N#Cc1cccc(Nc2n[nH]c3ccc(NC(=O)[C@@H](CCN)c4ccccc4)cc23)c1 [Compound I-1055] | 1000 to 3000 nM | 1000 to 10000
